Assay results published in US10781224B2, “Bis(oxymethyl)phosphinic acid and biogenic metal salts thereof as regulators of plant growth and development” (priority 2016, dated 2020).

Tested on: rice (Diamant variety)
Assay: Rice seed treatment with BHMPA salts: germinating power
Assay type: in vivo
How it was run: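 Seeds (50 per Petri dish on two layers of filter paper) soaked 1 h in BHMPA or its Ca, Mg, Na, Co, Mn, Cu or Zn salts at 1·10^−6-1·10^−12%, with water controls. Germination energy read on day 4, germination on day 8 (wheat) or day 7 (rice, corn), as % means of four replicates. Germinating power taken as root and sprout length plus wet and dry mass per 100 seedlings.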

[1] = rice seed treatment, comparison with Melaphen (Table XXXIII), solution 1 · 10^−9%
[2] = rice seeds, solution concentration 1 · 10^−6%
[3] = rice seeds, solution concentration 1 · 10^−7%
[4] = rice seeds, solution concentration 1 · 10^−8%
[5] = rice seeds, solution concentration 1 · 10^−9%
[6] = rice seeds, solution concentration 1 · 10^−10%
[7] = rice seeds, solution concentration 1 · 10^−11%
[8] = rice seeds, solution concentration 1 · 10^−12%
[9] = rice, vs control, 1·10^−9% solution

O.O.O=P([O-])(CO)CO.O=P([O-])(CO)CO.[Mn+2] [Mn-salt, Manganese BHMPA Salt]
optimum concentration for treating rice seeds before sowing (rice): 1·10^−9% | Length, root [1]: 6.8 cm | Length, root, + % to control [1]: 42% | Length, sprout [1]: 4.2 cm | Length, sprout, + % to control [1]: 35% | Mass, dry, root [1]: 0.24 g/100 plantlings | Mass, dry, root, + % to control [1]: 14% | Mass, dry, sprout [1]: 0.28 g/100 plantlings | Mass, dry, sprout, + % to control [1]: 12% | Mass, wet, root [1]: 1.34 g/100 plantlings | Mass, wet, root, + % to control [1]: 37% | Mass, wet, sprout [1]: 2.34 g/100 plantlings | Mass, wet, sprout, + % to control [1]: 55% | Length, root [2]: 6.2 cm | Length, root, + % to control [2]: 3% | Length, sprout [2]: 2.7 cm | Length, sprout, + % to control [2]: 8% | Mass, dry, root [2]: 0.22 g/100 plantlings | Mass, dry, root, + % to control [2]: 10% | Mass, dry, sprout [2]: 0.29 g/100 plantlings | Mass, dry, sprout, + % to control [2]: 11.5% | Mass, wet, root [2]: 1.13 g/100 plantlings | Mass, wet, root, + % to control [2]: 15% | Mass, wet, sprout [2]: 1.80 g/100 plantlings | Mass, wet, sprout, + % to control [2]: 5% | Length, root [3]: 6.4 cm | Length, root, + % to control [3]: 7% | Length, sprout [3]: 2.9 cm | Length, sprout, + % to control [3]: 16% | Mass, dry, root [3]: 0.25 g/100 plantlings | Mass, dry, root, + % to control [3]: 25% | Mass, dry, sprout [3]: 0.36 g/100 plantlings | Mass, dry, sprout, + % to control [3]: 38% | Mass, wet, root [3]: 1.21 g/100 plantlings | Mass, wet, root, + % to control [3]: 23% | Mass, wet, sprout [3]: 2.12 g/100 plantlings | Mass, wet, sprout, + % to control [3]: 23% | Length, root [4]: 6.5 cm | Length, root, + % to control [4]: 8% | Length, sprout [4]: 3.1 cm | Length, sprout, + % to control [4]: 24% | Mass, dry, root [4]: 0.28 g/100 plantlings | Mass, dry, root, + % to control [4]: 40% | Mass, dry, sprout [4]: 0.41 g/100 plantlings | Mass, dry, sprout, + % to control [4]: 58% | Mass, wet, root [4]: 1.30 g/100 plantlings | Mass, wet, root, + % to control [4]: 33% | Mass, wet, sprout [4]: 2.26 g/100 plantlings | Mass, wet, sprout, + % to control [4]: 31% | Length, root [5]: 6.8 cm | Length, root, + % to control [5]: 13% | Length, sprout [5]: 3.3 cm | Length, sprout, + % to control [5]: 32% | Mass, dry, root [5]: 0.32 g/100 plantlings | Mass, dry, root, + % to control [5]: 60% | Mass, dry, sprout [5]: 0.44 g/100 plantlings | Mass, dry, sprout, + % to control [5]: 69% | Mass, wet, root [5]: 1.44 g/100 plantlings | Mass, wet, root, + % to control [5]: 47% | Mass, wet, sprout [5]: 2.41 g/100 plantlings | Mass, wet, sprout, + % to control [5]: 40% | Length, root [6]: 6.7 cm | Length, root, + % to control [6]: 12% | Length, sprout [6]: 3.0 cm | Length, sprout, + % to control [6]: 12% | Mass, dry, root [6]: 0.26 g/100 plantlings | Mass, dry, root, + % to control [6]: 30% | Mass, dry, sprout [6]: 0.39 g/100 plantlings | Mass, dry, sprout, + % to control [6]: 50% | Mass, wet, root [6]: 1.33 g/100 plantlings | Mass, wet, root, + % to control [6]: 36% | Mass, wet, sprout [6]: 2.30 g/100 plantlings | Mass, wet, sprout, + % to control [6]: 34% | Length, root [7]: 6.5 cm | Length, root, + % to control [7]: 8% | Length, sprout [7]: 2.9 cm | Length, sprout, + % to control [7]: 16% | Mass, dry, root [7]: 0.23 g/100 plantlings | Mass, dry, root, + % to control [7]: 15% | Mass, dry, sprout [7]: 0.36 g/100 plantlings | Mass, dry, sprout, + % to control [7]: 38% | Mass, wet, root [7]: 1.29 g/100 plantlings | Mass, wet, root, + % to control [7]: 31% | Mass, wet, sprout [7]: 2.21 g/100 plantlings | Mass, wet, sprout, + % to control [7]: 28% | Length, root [8]: 6.3 cm | Length, root, + % to control [8]: 5% | Length, sprout [8]: 2.7 cm | Length, sprout, + % to control [8]: 8% | Mass, dry, root [8]: 0.20 g/100 plantlings | Mass, dry, root, + % to control [8]: 0% | Mass, dry, sprout [8]: 0.32 g/100 plantlings | Mass, dry, sprout, + % to control [8]: 23% | Mass, wet, root [8]: 1.27 g/100 plantlings | Mass, wet, root, + % to control [8]: 29% | Mass, wet, sprout [8]: 2.14 g/100 plantlings | Mass, wet, sprout, + % to control [8]: 24% | dry mass of the roots increased by [9]: 60% | dry mass of the sprouts increased by [9]: 69% | length of the root increased by [9]: 13% | length of the sprout increased by [9]: 32% | wet mass of the roots increased by [9]: 47% | wet mass of the sprouts increased by [9]: 40%
